Values joined by “and” are separate entries in the source; they are usually repeats but may differ in a detail not shown here. Equal entries are not always repeated. Where a SMILES comes first, the peptide text is derived from it. [ ]: non-standard residue; d: D form. NMeC = CN[C@@H](CS)C(=O)O
Assays:
[1] = system: SD rat cerebral ischemia reperfusion injury model (MCAO); test: Neurobehavioral evaluation (5-point Longa/Bederson score) in rat ischemic stroke model (MCAO); type: in vivo; set-up: key to Neurological function score After modeling: Longa/Bederson 5-point scale (0-4); higher = more severe deficit; conditions: for Neurological function score After modeling: individual rats
Description: Healthy male SPF grade SD rats (body weight 250-300 g) were selected. […] (2) A midline neck incision was made to expose the right common carotid artery, internal carotid artery and external carotid artery. A 6-0 silk thread was used to ligate the distal end of the external carotid artery at 4 mm from the bifurcation of the common carotid artery, another 6-0 silk thread was inserted at the external carotid artery, and a slipknot was tied near the bifurcation of the common carotid artery. (3) An arterial clamp was used to clamp the common carotid artery. […] (4) The thread embolism was removed 90 min after ischemia, the proximal end of the external artery was ligated with a 6-0 silk thread, the neck wound was sutured with a 3-0 silk thread, the wound was disinfected with povidone iodine, the rats were placed on a heating pad, and after being awake, they were placed in a constant temperature rearing box for rearing. […] The experimental animals were scored for signs of neurological function deficit before and after modeling. The scoring standard was given by reference to the 5-point system of Longa and Bederson. The scoring was performed 24 h after the animals were awake from anesthesia. The higher the score, the more severe the behavioral disorder of the animals. 0 point: No nerve damage symptoms […] Inability to fully extend the contralateral front paw […] Turning in a circle to the opposite side […] Falling over to the opposite side 4 points: Inability to walk spontaneously, and loss of consciousness In a manner same as in Example 1, experimental animals were selected, except that the experiment was divided into seven groups (i.e., groups […], and G, among which groups C, D, and E were given different dosages of administration from Example 1, group F was given edaravone, and group G was given amifostine).

[2] = system: SD rat cerebral ischemia reperfusion injury model (MCAO); test: TTC staining and cerebral infarction area in rat ischemic stroke model (MCAO); type: in vivo; conditions: for Cerebral infarction area: individual rats
Protocol: Healthy male SPF grade SD rats (body weight 250-300 g) were selected. (1) The rats were anesthetized, the skin on the neck was prepared, and the body temperature was maintained at 37±0.5° C. (2) A midline neck incision was made to expose the right common carotid artery, internal carotid artery and external carotid artery. A 6-0 silk thread was used to ligate the distal end of the external carotid artery at 4 mm from the bifurcation of the common carotid artery, another 6-0 silk thread was inserted at the external carotid artery, and a slipknot was tied near the bifurcation of the common carotid artery. (3) An arterial clamp was used to clamp the common carotid artery. A small opening was cut on the external carotid artery at 3 mm from the bifurcation of the common carotid artery, and a 0.33 mm diameter nylon thread with a treated head end was inserted through the small opening, entered the internal carotid artery, and was inserted inward to the middle cerebral artery, wherein the insertion depth of the nylon thread was about 16±1 mm from the bifurcation of the common carotid artery. (4) The thread embolism was removed 90 min after ischemia, the proximal end of the external artery was ligated with a 6-0 silk thread, the neck wound was sutured with a 3-0 silk thread, the wound was disinfected with povidone iodine, the rats were placed on a heating pad, and after being awake, they were placed in a constant temperature rearing box for rearing. […] After the rats were anesthetized, the brain tissues were taken from the rats, placed in a refrigerator and frozen at -20° C. for 30 min. 1% TTC (W/V) was prepared with PBS and placed in a water bath at 37° C. until the TTC was dissolved, and the frozen brain tissue was sliced, placed in 10 ml of the TTC solution and incubated at 37° C. for 10 min. The brain slices were turned from time to time to make the tissue evenly stained. Normal brain tissue was bright red after staining, whereas the infarction region was pale white in color or light white in a black and white image. In addition, a software was used to measure and statistically analyze the infarction area. In a manner same as in Example 1, experimental animals were selected, except that the experiment was divided into seven groups (i.e., groups […], and G, among which groups C, D, and E were given different dosages of administration from Example 1, group F was given edaravone, and group G was given amifostine).

[3] = system: bleomycin (BLM)-induced scleroderma mouse model; test: Hydroxyproline level in skin lesion, BLM-induced scleroderma mouse model; type: in vivo, mice; conditions: compound A (hydrochloride) 600 mg/kg/d by gavage or compound B (trifluoroacetate) 200 mg/kg/d i.p., 28 days with BLM
Description: Materials: C57BL/6 female mice, weighing 20-25 g, were purchased from Shanghai SLAC Laboratory Animal Co., Ltd. Using a random number table method, 24 mice were divided into a blank control group (1), a scleroderma model group (2), a scleroderma+compound A treatment group (3), and a scleroderma+compound B treatment group (4), with 6 mice in each group. Bleomycin (BLM) was purchased from Sigma. An H-E staining kit was purchased from Beijing Solarbio Science & Technology Co., Ltd. Compound A used in this example was in the form of a hydrochloride thereof, and compound B was in the form of a trifluoroacetate thereof.
Method: The intended injection site (area 1 cm^2) of the mice was shaved using an electric shaver. […] Conventional iodine tincture was used to disinfect the back skin of the mice, and a local diseased skin tissue was surgically cut, fixed in 4% paraformaldehyde, embedded in paraffin, sectioned, and analyzed by H-E staining. […]
Method: Part of the skin lesion tissue of the mice was taken, and the contents of hydroxyproline and hydrogen peroxide in the skin lesion region were detected according to the requirements in the kit instructions.

[4] = Example 1 group E: compound A (trifluoroacetate) 1600 mg/kg p.o. 2.5 h before reperfusion, 1600 mg/kg
[5] = Example 1 group E: compound A (trifluoroacetate) 1600 mg/kg p.o. 2.5 h before reperfusion, 24 h, 1600 mg/kg
[6] = Example 2 group D: compound A (trifluoroacetate) 400 mg/kg p.o. 2.5 h before reperfusion, 400 mg/kg
[7] = Example 2 group E: compound A (trifluoroacetate) 800 mg/kg p.o. 2.5 h before reperfusion, 800 mg/kg
[8] = Example 1 group C: compound B (trifluoroacetate) 200 mg/kg i.p. 5 min before reperfusion, 200 mg/kg
[9] = Example 1 group C: compound B (trifluoroacetate) 200 mg/kg i.p. 5 min before reperfusion, 24 h, 200 mg/kg
[10] = Example 1 group D: compound B (trifluoroacetate) 200 mg/kg i.p. during ischemia and 200 mg/kg i.p. 5 min before reperfusion
[11] = Example 1 group D: compound B (trifluoroacetate) 200 mg/kg i.p. during ischemia and 200 mg/kg i.p. 5 min before reperfusion, 24 h
[12] = Example 2 group C: compound B (trifluoroacetate) 100 mg/kg i.p. 5 min before reperfusion, 100 mg/kg

CNC(=O)[C@H](CS)NC(=O)[C@H](CS)NC [Compound A, (R)-3-mercapto-N—((R)-3-mercapto-1-(methylamino)-1-oxoprop-2-yl)-2-(methylamino)propionamide] (H-[NMeC]-Cys-NHMe)
% Behavioral improvement [1, 4]: 77.8%
Neurological function score After modeling [1, 5]: 1 (2×) and 0
% Behavioral improvement [1, 6]: 46.99%
Neurological function score After modeling [1, 6]: 2 (3×) and 1 (3×)
% Behavioral improvement [1, 7]: 59.01%
Neurological function score After modeling [1, 7]: 1 (5×) and 2
% Improvement of cerebral infarction area [2, 4]: 83.9%
Cerebral infarction area [2, 5]: 40.19 mm^3 and 26.33 mm^3 and 9.18 mm^3
% Improvement of cerebral infarction area [2, 6]: 72.97%
Cerebral infarction area [2, 6]: 25.16 mm^3 and 11.23 mm^3 and 20.59 mm^3 and 15.48 mm^3 and 38.04 mm^3 and 82.75 mm^3
% Improvement of cerebral infarction area [2, 7]: 87.32%
Cerebral infarction area [2, 7]: 14.23 mm^3 and 0 mm^3 (2×) and 16.93 mm^3 and 12.31 mm^3 and 47.18 mm^3
Level of hydroxyproline in the skin lesion site [3]: down-regulated

CNC(=O)[C@H](CS)NC(=O)[C@H](CS)NC(=O)[C@H](CS)NC [Compound B, (R)-3-mercapto-N—((R)-3-mercapto-1-(((R)-3-mercapto-1-(methylamino)-1-oxoprop-2-yl)amino)-1-oxoprop-2-yl)-2-(methylamino)propionamide] (H-[NMeC]-Cys-Cys-NHMe)
% Behavioral improvement [1, 8]: 66.7%
Neurological function score After modeling [1, 9]: 0 and 1 (3×) and 2
% Behavioral improvement [1, 10]: 66.7%
Neurological function score After modeling [1, 11]: 1
% Behavioral improvement [1, 12]: 29.32%
Neurological function score After modeling [1, 12]: 1 and 2 (4×) and 3
% Improvement of cerebral infarction area [2, 8]: 62.5%
Cerebral infarction area [2, 9]: 67.44 mm^3 and 67.69 mm^3 and 32.84 mm^3 and 23.4 mm^3 and 105.9 mm^3
% Improvement of cerebral infarction area [2, 10]: 44.4%
Cerebral infarction area [2, 11]: 67.53 mm^3 and 105.5 mm^3
% Improvement of cerebral infarction area [2, 12]: 59.5%
Cerebral infarction area [2, 12]: 0 mm^3 and 32.568 mm^3 and 45.956 mm^3 and 21.529 mm^3 and 104.008 mm^3 and 85.208 mm^3
Level of hydroxyproline in the skin lesion site [3]: down-regulated

Source: patent publication US20220259164A1, “USE OF AMINOTHIOL COMPOUNDS AS CEREBRAL NERVE OR HEART PROTECTIVE AGENT” (SHANGHAI KECHOW PHARMA, INC., priority 2019, published 2022)
